Key:
MDAMB453 cells [1] = assay: Growth survival assay after IR with DHT or ENZ pretreatment; type: cell-based, human
Description: (a) (Top) Cells were cultured in steroid-deprived media −/+ DHT for 24 hours and then treated with IR: mock (ϕ), 4 Gy, or 6 Gy. Cells were then supplemented with hormone-proficient media at 48 hours post-IR. Cell number was determined on day 14-21. (Bottom) Cells were cultured in hormone-proficient media for 24 hours without or with enzalutamide (ENZ) and then treated with IR; mock (ϕ) or 4 Gy. Error bars represent normalized s.e.m of at least three experiments. (b) MCF7, BT474, CAMA1, HCC202, and MDAMB453 cells were treated with ENZ, ENZ+IR, DHT, or DHT+IR as in (a). […] Error bars represent normalized s.e.m of at least three experiments and the Student's t-test was used for statistical analysis. *, P<0.05. […]
(§2) Cells were plated using a Multidrop Combi liquid handler (Thermo Fisher) in at least quadruplicates for each time point at three cell densities (range 25-225 cells per well) in a white 384-well plate (Corning, N.Y.). […] Relative luminescence units were measured using an Envision multilabel plate reader (Perkin Elmer) with a measurement time of 0.1 seconds. Luminescence signal is proportional to the amount of ATP present. […] The luminescence signal was plotted as a function of cell density and a cell density within the linear range for luminescence (or growth) was selected to generate integral survival for each cell line. […]

[2] = tested on: MCF7, BT474, CAMA1, HCC202, MDAMB453, HMC18 cells; assay: Growth survival assay after IR across several breast cancer cell lines; type: cell-based, human; conditions: only in cell lines that expressed AR, independent of ER and ErbB2 activity
Description: (a) (Top) Cells were cultured in steroid-deprived media −/+ DHT for 24 hours and then treated with IR: mock (ϕ), 4 Gy, or 6 Gy. Cells were then supplemented with hormone-proficient media at 48 hours post-IR. Cell number was determined on day 14-21. (Bottom) Cells were cultured in hormone-proficient media for 24 hours without or with enzalutamide (ENZ) and then treated with IR; mock (ϕ) or 4 Gy. Error bars represent normalized s.e.m of at least three experiments. (b) MCF7, BT474, CAMA1, HCC202, and MDAMB453 cells were treated with ENZ, ENZ+IR, DHT, or DHT+IR as in (a). HMC18 cells were treated similarly but were profiled by clonogenic survival assays. […]
as §2

MDAMB453 cells [3] = assay: Neutral comet assay; type: cell-based, human; conditions: pretreated 24 hours prior to 15 Gy of irradiation; ENZ 20 μM
Description: (§1) Single-cell gel electrophoresis was conducted in alkaline or neutral buffer according to the manufacturer's instructions, Trevigen (Gaithersburg, Md.). Slides were blinded and enumerated by a single user.

MDAMB453 cells [4] = assay: γH2AX formation and resolution kinetics (Western blot); type: cell-based, human; conditions: 3 Gy; effect persisted at 24 hours
[5] = tested on: C4-2 prostate cancer cells; conditions: AR-positive cells; 2 Gy
Description: (a) (Top) Cells were cultured in steroid-deprived media −/+ DHT for 24 hours and then treated with IR: mock (ϕ), 4 Gy, or 6 Gy. Cells were then supplemented with hormone-proficient media at 48 hours post-IR. […] (Bottom) Cells were cultured in hormone-proficient media for 24 hours without or with enzalutamide (ENZ) and then treated with IR; mock (ϕ) or 4 Gy. Error bars represent normalized s.e.m of at least three experiments. […] Error bars represent normalized s.e.m of at least three experiments and the Student's t-test was used for statistical analysis. *, P<0.05. […] Error bars represent s.e.m of at least three experiments and the Student's t-test was used for statistical analysis. *, P<0.05. (d) Cells were cultured in hormone-proficient (FBS) media for 24 hours −/+ ENZ and then treated with IR: mock (ϕ 3 Gy (HMC18 and MDAMB453), or 2 Gy (C4-2). Cells were cultured in steroid-deprived media for 48 hours, treated −/+ DHT for 24 hours, and then treated with IR: mock (ϕ), 3 Gy (HMC18 and MDAMB453), or 2 Gy (C4-2). γH2AX, HDAC1, and actin levels were measured at the indicated time points. Relative intensity of γH2AX was calculated by ImageJ64. (e) MDAMB453 cells were cultured in steroid-replete, steroid-deficient, or steroid-deficient with 1 nM DHT for 24 hours, then treated with irradiation. Cells were harvested and expression of γDNAPKcs was analyzed. […]

MDAMB453 cells [6] = conditions: steroid-deprived media supplemented with 1 nM DHT for 24 hours
Description: (d) Cells were cultured in hormone-proficient (FBS) media for 24 hours −/+ ENZ and then treated with IR: mock (ϕ 3 Gy (HMC18 and MDAMB453), or 2 Gy (C4-2). Cells were cultured in steroid-deprived media for 48 hours, treated −/+ DHT for 24 hours, and then treated with IR: mock (ϕ), 3 Gy (HMC18 and MDAMB453), or 2 Gy (C4-2). γH2AX, HDAC1, and actin levels were measured at the indicated time points. Relative intensity of γH2AX was calculated by ImageJ64. (e) MDAMB453 cells were cultured in steroid-replete, steroid-deficient, or steroid-deficient with 1 nM DHT for 24 hours, then treated with irradiation. Cells were harvested and expression of γDNAPKcs was analyzed.
Whole cell lysates were prepared using M-PER lysis buffer and clarified by centrifugation. Proteins were separated by SDS-PAGE and transferred onto 0.45 μM nitrocellulose membranes (Maine Manufacturing; Sanford, Me.). After primary antibody incubation for 1-2 hours at room temperature, washings, and incubation with secondary antibodies, blots were developed with a chemoluminescence system (Amersham/GE Healthcare). For γH2AX measurements, proteins were transferred onto 0.2 μM nitrocellulose (Bio-Rad).
The phosphorylation of DNAPKcs on Ser2056 was examined, which is indicative of activated DNAPKcs, in MDAMB453 cells.

BT474 cells = assay: Neutral comet assay; type: cell-based, human; conditions: irradiated (10 Gy) after 24 hours of treatment with ENZ (20 μM)
Description: FIG. 16: AR regulates DNA damage and repair in AR, ER positive cells.
as §1

HMC18 cells = assay: γH2AX formation and resolution kinetics (Western blot); type: cell-based, human; conditions: AR-negative cells; 3 Gy
[7] = tested on: MDAMB453 orthotopic xenografts; assay: MDAMB453 orthotopic xenograft study
Description: (g) MDAMB453 cells were orthotopically injected into the mammary gland of NSG mice and block randomized into one of four treatment arms as shown. Tumor volume was measured daily. Error bars represent normalized s.e.m of at least seven mice in each treatment arm. *, P<0.05 compared with all other treatment conditions based on ANOVA and Tukey Contrasts. **, P<0.05 for interaction based on two-way ANOVA. […] This cohort received ENZ at 25 mg kg^−1. (i) Average weight for each arm in both cohorts was measured weekly. Data are expressed as the means±s.e. of at least seven mice in each treatment arm.
Female NSG mice, 6-8 weeks of age, were obtained from the Cleveland Clinic Biological Resources Unit facility. All mouse studies were conducted under a protocol approved by the Cleveland Clinic Institutional Animal Care and Use Committee MDAMB453 cells were resuspended in serum free media and injected into the inguinal mammary gland. Once tumors reached 200 mm^3, mice were block randomized and assigned to vehicle, enzalutamide, vehicle plus radiotherapy, or enzalutamide plus radiotherapy. Two cohorts consisting of these four arms underwent treatment. Vehicle consisted of a volume of 5 mL per kg of PEG-400 solution containing 1.5%/0 of DMSO for cohort 1 and 2.5% DMSO for cohort 2 via oral gavage daily. Cohort 1 received enzalutamide at 15 mg kg^−1 and cohort 2 received enzaluatmide at 25 mg kg^−1. Radiotherapy was delivered to a dose of 1.5 Gy in three fractions once tumor size reached 250 mm^3. Treatment was not blinded to the investigator. Tumor volume was measured daily. Mice were sacrificed once their tumors reached an approximate size of 1,000 mm^3 or at treatment days 21-28. The significance of the difference between treatment groups was assessed by one-way and the interaction between drug and radiation was measured by two-way ANOVA.

C[C@]12CCC(=O)C[C@@H]1CC[C@@H]1[C@@H]2CC[C@]2(C)[C@@H](O)CC[C@@H]12 [DHT, Dihydrotestosterone]
Cell growth after radiation (MDAMB453 cells [1]; DHT re-supplementation in steroid-deprived media before radiation, IR 4 or 6 Gy): dose dependent rescue of cell growth | Protection or sensitization to radiation [2]: protection | DNA damage (double-strand breaks) (MDAMB453 cells [3]): decreased | Levels of γH2AX after irradiation (MDAMB453 cells [4]): decreased | γH2AX resolution [5]: hastened γH2AX resolution | γDNAPKcs levels following irradiation (MDAMB453 cells [6]): maintained γDNAPKcs at similar levels to those cells grown in the steroid-replete media

CNC(=O)c1ccc(N2C(=S)N(c3ccc(C#N)c(C(F)(F)F)c3)C(=O)C2(C)C)cc1F [ENZ, enzalutamide]
Cell number after radiation (MDAMB453 cells [1]; hormone-proficient media, ENZ 24 hours before IR 4 Gy, compared to vehicle): decreased cell number compared to vehicle alone | Protection or sensitization to radiation [2]: sensitization | DNA damage (double-strand breaks) (MDAMB453 cells [3]): increased DNA damage | Double-strand breaks (BT474 cells): increased double-strand breaks | Levels of γH2AX after irradiation (MDAMB453 cells [4]): increased shortly after irradiation | Kinetics of γH2AX formation and resolution (HMC18 cells): unaffected | Tumor growth, ENZ alone ([7]; 15 mg kg^−1, used alone): no effects on tumor growth | Tumor suppression, interaction with radiotherapy ([7]; 15 mg kg^−1 plus radiotherapy): interactive tumor suppression with radiotherapy | Tumor growth, ENZ ([7]; 25 mg kg^−1): Suppression of tumor growth | Body weight loss during the course of treatment ([7]; ENZ 25 mg kg^−1 and radiation): ~10% | Tumor growth, combination with ionizing radiation ([7]; ENZ at 15 mg kg^−1 or 25 mg kg^−1 plus ionizing radiation): more effective suppression of tumor growth than either modality alone

From patent publication US10391173B2, “Anti-ar agent and radiation therapy for androgen receptor positive cancer” (The Cleveland Clinic Foundation, priority 2016, dated 2019)
